One compound from PMC7594840, “Identification of histone deacetylase inhibitors with (arylidene)aminoxy scaffold active in uveal melanoma cell lines” (Journal of Enzyme Inhibition and Medicinal Chemistry, 2020) can be followed below.

Structures are written as SMILES.

For test [1], the system named is HDAC target genes (RAD54L, RAD51, CLU, DHRS2, CDKN1A) in 92.1 cells. As to the kind of experiment: QRT-PCR of mRNA levels of HDAC target genes, 92.1 cells. The note with it: 10 µM compound, 48 h, normalised to GAPDH. Format: cell-based, human. Here is the method: (§1) Finally, we determined if the treatment of UM cells 92.1 and Mel270 with our compounds could modify the mRNA levels of HDAC target genes. […]
(§2) Figure 9. Modulation of RAD54L, RAD51 and CLU mRNA expression by the different compounds in UM cells 92.1 and Mel270. Cells were treated for 48 h with 10 µM compound or the corresponding amount of DMSO. Data, normalised to GAPDH housekeeping gene, are expressed as fold change relative to the DMSO control. Error bars represent SD of triplicates. One representative experiment is shown.
(§3) Treatments with the compounds were performed with slight differences, according to the final use of the samples. For the cell viability assay with MTT, cells were seeded in 96-well flat-bottom plates in culture medium at 5 × 10^3 cells/well, whereas for cell cycle analysis and QRT-PCR cells were seeded in 24-well plates at 5 × 10^4 cells/well. The day after, a culture medium containing the appropriate amount of compounds or their solvent control DMSO was added, and treatments were carried out for the indicated time.
(§4) To assess the modulation of gene expression, cells were harvested at 48 h of treatment and total RNA was isolated using the NucleoSpin RNA kit (Macherey-Nagel) and reverse-transcribed with the SuperScript III Reverse Transcriptase (Invitrogen). […] Expression levels of mRNAs relative to untreated control were calculated by the ΔΔCT method (Table 3).

The next test addresses T1, HDAC8 (Homo sapiens, UniProt Q9BY41).
T1 construct: purchased BPS Bioscience
T1 sequence (Q9BY41 1-377): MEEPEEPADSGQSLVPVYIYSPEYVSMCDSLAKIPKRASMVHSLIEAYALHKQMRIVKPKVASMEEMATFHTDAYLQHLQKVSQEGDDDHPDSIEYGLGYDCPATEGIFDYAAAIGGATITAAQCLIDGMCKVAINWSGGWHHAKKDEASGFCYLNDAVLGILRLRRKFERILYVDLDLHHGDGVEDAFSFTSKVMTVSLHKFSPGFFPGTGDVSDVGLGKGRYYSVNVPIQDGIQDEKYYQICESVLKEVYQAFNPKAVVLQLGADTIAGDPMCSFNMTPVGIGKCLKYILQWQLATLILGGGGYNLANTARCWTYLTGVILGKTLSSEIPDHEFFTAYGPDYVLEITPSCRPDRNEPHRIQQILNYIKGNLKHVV
The experiment in a line: Microfluidic chip-based HDAC inhibition assay (Calliper off-chip mobility shift), HDAC8. The note with it: duplicate, 10-point dose curve, 3-fold serial dilution from 30 μM. Format: biochemical.

The next test concerns the target T2, HDAC3 (Homo sapiens, UniProt O15379).
T2 construct: purchased BPS Bioscience
The experiment in a line: Microfluidic chip-based HDAC inhibition assay (Calliper off-chip mobility shift), HDAC3. Format: biochemical. The conditions noted are these: duplicate, 10-point dose curve, 3-fold serial dilution from 30 μM; SAHA 15-point dose curve.

Test [2] has as its system HeLa nuclear extract containing a mixture of HDACs. As to the kind of experiment: HDAC Fluorimetric Assay/Drug Discovery Kit (BIOMOL) on HeLa nuclear extract. Format: biochemical.
Experimental: The hydroxamic acids 1a–c, 2a–f and carboxylic acids 3a–c, 4a––e synthesised in this study were preliminarily tested on a HeLa nuclear extract containing a mixture of HDACs, by using a commercially available HDAC assay kit (BIOMOL). SAHA and Trichostatin A (TSA) were used as positive controls.
HDAC inhibitory activity of newly synthesised compounds was evaluated using an HDAC Fluorimetric Assay/Drug Discovery Kit (AK-500, BIOMOL). […] Reactions were stopped after 30 min by adding Fluor de Lys^TM Developer. After the addition of this developer, the plate was incubated at room temperature for 15 min, the fluorescence intensity of the wells was measured on a fluorometric plate reader with excitation set at 360 nm and emission detection set at 460 nm.
Test [3] deals with 92.1 cells. As to the kind of experiment: Cell cycle distribution by flow cytometry (PI), 92.1 cells. Format: cell-based, human. The note with it: 10 µM compound, 48 h. On the procedure:
(§5) We then investigated whether this anti-proliferative effect was due to the blockade in the G0/G1 phase of the cell cycle, as expected for SAHA[31].
(§6) Figure 8. Influence of the different compounds and DMSO solvent control on cell cycle distribution in UM 92.1 and Mel270 cells. The cells were treated with 10 µM compound for 48 h and cell cycle distribution was analysed by flow cytometry after fixation and staining with PI. The percentage of cells in each category is indicated. One representative experiment is shown.
as §3
(§7) To assess the cell cycle status of treated samples, after 48 h of incubation the cells were harvested, washed twice with cold PBS, and fixed in 70% ethyl alcohol at −20 °C overnight. The day after, the samples were washed with cold PBS and incubated for 20 min with propidium iodide (PI) staining solution (50 μg/ml PI, 0.05% Triton X-100, 0.2 mg/ml RNase A in PBS) at room temperature. Flow cytometric analysis of DNA content was performed using a FACScan flow cytometer with the CellQuest software (BD Biosciences). Gating on viable cells was performed using physical parameters and 10^4 gated events were acquired. Cell cycle analysis on the gated PI distribution was performed using Modfit software.

Test [4] concerns HDAC target genes (RAD54L, RAD51, CLU) in Mel270 cells. The experiment in a line: QRT-PCR of mRNA levels of HDAC target genes, Mel270 cells. Format: cell-based, human. The conditions noted are these: 10 µM compound, 48 h, normalised to GAPDH. Here is the method:
as §1, §2, §3, §4

Test [5] relates to Mel270 cells. As to the kind of experiment: Cell cycle distribution by flow cytometry (PI), Mel270 cells. Format: cell-based, human. The note with it: 10 µM compound, 48 h. Here is the method:
as §5, §6, §3, §7
A general note: A flow cytometer gives signals particle by particle.

The target in another test is T3, HDAC1 (Homo sapiens, UniProt Q13547).
T3 construct: purchased BPS Bioscience
T3 sequence (Q13547 whole entry): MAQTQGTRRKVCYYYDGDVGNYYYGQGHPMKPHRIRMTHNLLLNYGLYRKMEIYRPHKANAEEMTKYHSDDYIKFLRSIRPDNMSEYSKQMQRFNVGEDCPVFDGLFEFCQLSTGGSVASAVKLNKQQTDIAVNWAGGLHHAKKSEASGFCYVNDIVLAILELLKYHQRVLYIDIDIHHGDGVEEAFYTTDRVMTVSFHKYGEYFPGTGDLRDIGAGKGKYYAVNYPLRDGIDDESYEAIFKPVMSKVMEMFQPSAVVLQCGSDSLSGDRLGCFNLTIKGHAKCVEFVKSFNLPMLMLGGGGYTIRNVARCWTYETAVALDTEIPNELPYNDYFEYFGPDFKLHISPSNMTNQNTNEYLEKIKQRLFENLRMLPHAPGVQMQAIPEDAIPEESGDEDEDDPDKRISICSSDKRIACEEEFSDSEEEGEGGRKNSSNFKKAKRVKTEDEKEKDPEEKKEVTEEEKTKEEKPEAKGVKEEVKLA
As to the kind of experiment: Microfluidic chip-based HDAC inhibition assay (Calliper off-chip mobility shift), HDAC1. Format: biochemical. The note with it: duplicate, 10-point dose curve, 3-fold serial dilution from 30 μM.

For test [6], the system named is 92.1 cells. As to the kind of experiment: MTT cell viability assay, UM cell line 92.1. Format: cell-based, human. The note with it: 72 h treatment, compared with SAHA and LD10. Here is the method: (§8) The anti-proliferative effects of the most promising HDAC inhibitors, VS16, VS13, SN2, and LD10 were evaluated on human UM cell lines (92.1 and Mel270) and SAHA was used as a positive control. First, we assessed by MTT assay the cell viability after a 72 h treatment at different concentrations. […] Similar results were found for ovarian carcinoma cell line A2780 and to a lesser extent for SKOV3 (Supplementary Figure S2).
(§9) Figure 7. MTT. In vitro cytotoxicity at the 72 h time point of the different compounds in human UM cell lines 92.1 and Mel270, as assessed by the MTT cell viability assay. Data are expressed as percent of control with the DMSO solvent, which was used at the same amount present in the highest compound concentration. Error bars represent SD of quadruplicates. One representative experiment is shown.
as §3
(§10) Cell viability after treatment was evaluated by a microculture tetrazolium reduction assay using MTT [3–(4,5-dimethyltiazol-2-yl) 2,5-diphenyltetrazolium bromide; Sigma]. At 72 h of treatment, 20 μl of MTT stock solution (2 mg/ml in PBS) were added to 200 μl cell cultures for an additional 4 h of incubation. MTT-containing culture medium was then removed and precipitated formazan was dissolved in 100 μl of DMSO. Results were read within 15 min in a microplate reader spectrometer at 540 nm (MEDGENIX 400 ATC, Medgenix Diagnostics), and the means of quadruplicates were calculated. Cell survival was expressed as a percentage of control samples.
(Formazan colour is commonly taken as a measure of viable cells.)

Test [7] concerns Mel270 cells. As to the kind of experiment: MTT cell viability assay, UM cell line Mel270. Format: cell-based, human. The note with it: 72 h treatment, compared with SAHA and LD10. On the procedure: as §8, §9, §3, §10

T2 sequence (O15379 whole entry): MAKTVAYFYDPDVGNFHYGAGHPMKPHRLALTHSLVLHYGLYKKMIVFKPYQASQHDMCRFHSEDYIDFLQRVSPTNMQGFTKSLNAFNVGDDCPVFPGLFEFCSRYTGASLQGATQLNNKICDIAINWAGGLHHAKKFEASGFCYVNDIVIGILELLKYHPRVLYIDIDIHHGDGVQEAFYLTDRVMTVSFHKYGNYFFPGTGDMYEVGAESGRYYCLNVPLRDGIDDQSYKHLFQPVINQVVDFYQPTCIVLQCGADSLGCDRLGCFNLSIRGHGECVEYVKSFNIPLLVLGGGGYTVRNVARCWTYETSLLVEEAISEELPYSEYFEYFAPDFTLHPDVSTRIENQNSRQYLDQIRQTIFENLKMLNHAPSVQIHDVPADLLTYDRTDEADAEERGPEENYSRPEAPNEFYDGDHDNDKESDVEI
T2 sequence (Q9Y618 395-489 partner limits assumed): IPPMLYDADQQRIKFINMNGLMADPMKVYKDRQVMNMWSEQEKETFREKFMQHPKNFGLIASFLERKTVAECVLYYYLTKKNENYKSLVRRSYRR
Text for HDAC1: (§11) Test compounds were screened against human histone deacetylases (HDACs) 1, 3, 6, and 8 using the Calliper off-chip mobility shift assay technology. All HDACs were purchased from BPS Bioscience and four selective substrates were used according to the targeted isozyme. […] Buffers components, except for CR-3 (LabChip Coating Reagent 3, purchased from PerkinElmer, Product Number 760050) and Panobinostat (LBH589, purchased from ApexBio Technology)[35]^,[36] were purchased from Sigma Aldrich. […] (all purchased from Selleck Chemicals).
Text for HDAC3: as §11
Text for HDAC8: as §11

As for `O=C(CCCCO/N=C/c1cnc2ccccc2c1)NO` [Compound 2f, (E)-N-hydroxy-5-(((quinolin-3-ylmethylene)amino)oxy)pentanamide], the “modulation of mRNA levels of HDAC target genes” value in test [1] was “induced a pattern of gene modulation, which overlapped that of SAHA”; in [4], “induced a pattern of gene modulation, which overlapped that of SAHA”. The IC50 came to 9290 nM at HDAC8; 40 nM on HDAC3; 54 nM in test [2] (means of at least three experiments, SD <20% of the mean); 137 nM at HDAC1. Further, the “folds more potent than SAHA” value in test [2] (HeLa extract IC50 compared with SAHA) is on record as 3- to 5 fold. Besides, the “effect on cell cycle distribution” value in the test on 92.1 cells [3] and in the test on Mel270 cells [5] was “efficiently block the cell cycle at the G0/G1 phase” throughout. In addition, the “effect on cell viability (MTT)” value in the test with 92.1 cells [6] and with Mel270 cells [7] was “stronger effect” in each case.

The IC50 is the concentration at which inhibition is half-maximal.
